The values that follow come from US20030134848A1, “Substituted 1-aza-2-imino-heterocycles and their use as nicotinic acetylcholin receptors activators” (priority 2000, published 2003).

Experiment [1] has as its target T1, α4β2 subtype of nicotinic acetylcholine receptors (Rattus norvegicus, UniProt P09483+P12390).
T1 construct: rat brain membrane obtained from whole homogenized brain; from tissue; host or cells: whole brain of Fischer-344 male rats, membrane fraction
Description: Binding assay at α4β2 subtype of nicotinic acetylcholine receptors ([3H]-cytisine, rat brain membrane). The source says:
(§1) The methods for evaluating the binding capabilities of the compounds at nicotinic acetylcholine receptors are different by subtypes of receptors. The binding capabilities of the compounds at α4β2 nicotinic acetylcholine receptors are examined using rat brain membrane obtained from whole homogenized brain, and determining the inhibiting rate of the compounds against [^3H]-cytisine binding to said brain membrane. Furthermore, the binding capabilities of the compounds at α1β1γδ nicotinic acetylcholine receptors are examined using homogenized rat muscle, and determining the inhibiting rate of the compounds against [^3H]-α-bungarotoxin binding to said muscle homogenate.
The affinity of the compounds of the present invention to α4β2 subtype of nicotinic acetylcholine receptors was performed by the following method, which was modified method described by Pabreza L. A., Dhawan S. & Kellar K. J., Mol. Pharm., 39, 9-12 (1990), and by Anderson D. J. & Arneric S. P., Eur. J. Pharm., 253, 261-267 (1994).
(1) Preparation of Rat Brain Membrane Containing α4β2 Subtype of Nicotinic Acetylcholine Receptors
Fischer-344 strain male rats (body weight: 200-240 g; 9 weeks old) obtained from Charles River Japan were used. Rats were housed in the breeding cage controlled of the room temperature at 23±1° C., and the humidity of 55±5% for 1 to 4 weeks. Rats (3 to 4 rats per a cage) were housed with lights on for 12 hours daily (from 7:00 to 19:00), and allowed free access to food and water.
Preparation of rat brain membrane containing α4β2 subtype of nicotinic acetylcholine receptors was performed as follow. That is, rat brains were isolated just after sacrificed by decapitation, washed with ice-cooled saline solution and then frozen at −80° C. with liquid nitrogen and stored till using. After thawing the frozen brain, the brain was homogenized in 10 volumes of ice-cooled buffer solution (50 mM of Tris-HCl, 120 mM of NaCl, 5 mM of KCl, 1 mM of MgCl2, 2 mM of CaCl2; pH 7.4; 4° C.) using homogenizer (HG30, Hitachi Kohki Ltd.) for 30 seconds, and the homogenate were centrifuged under 1,000×G for 10 minutes at 4° C. The resulting supernatant was separated and the pellet was homogenized again with half volume of aforementioned prior buffer solution and centrifuged under the same conditions. Combined supernatant was further centrifuged under 40,000×G for 20 minutes at 4° C. The pellet was suspended in buffer solution and used for binding assays at receptors.
(2) Experiments of α4β2 Subtype of Nicotinic Acetylcholine Receptors Binding
Suspensions of membrane pellets containing 400-600 μg of protein were added to test tubes containing test compounds and [^3H]-cytisine (2 nM) in a final volume of 200 μl and incubated for 75 minutes in ice-cooled bath. The samples were isolated by vacuum filtration onto Whatman GF/B filters, which were prerinsed with 0.5% polyethylenimine just prior to sample filtration, using Brandel multi manifold cell harvester. The filters were rapidly washed with buffer solution (3×1 ml). The filters were counted in 3 ml of clearsol I (Nacalai Tesque Inc.).
The analyses of the experimental results were conducted by using the Accufit Competition Program (Beckman Ltd.).

Experiment [2] deals with α1β1γδ subtype of nicotinic acetylcholine receptors (Rattus norvegicus, UniProt P18916+P25108+P25110). As to the kind of experiment: biochemical. The experiment is classed as binding. As to conditions: for Ki: read-out: Affinities for receptors Ki α1β1γδ, rat muscle extract, [3H]-α-Bgt 1 nM.
Source text: as §1
The affinity of the compounds of the present invention to α1β1γδ subtype of nicotinic acetylcholine receptors was measured by the following method, which was modified method described by Garcha H. S., Thomas P., Spivak C. E., Wonnacott S. & Stolerman I. P., Psychropharmacology, 110, 347-354 (1993).
(1) Preparation of Rat Skeletal Muscles Containing α1β1γδ Subtype of Nicotinic Acetylcholine Receptors
The substantially same animals described in the Biological Experiment 1 were used.
The isolation of α1β1γδ subtype of nicotinic acetylcholine receptors was performed as follow. That is, rat posterior skeletal muscles were isolated just after sacrificed by decapitation, washed with ice-cooled saline solution and then frozen at −80° C. with liquid nitrogen and stored till using. After thawing the frozen muscles, tissue was homogenized (40% w/v) with buffer solution [2.5 mM of sodium phosphate buffer (pH:7.2), 90 mM of NaCl, 2 mM of KCl, 1 mM of EDTA, 2 mM of benzamidine, 0.1 mM of benzethonium chloride, 0.1 mM of PMSF, 0.01% of sodium azide] in Waring blender (Waring blender 34BL97; WARING PRODUCTS DIVISION DYNAMICS CORPORATION OF AMERICA) for 60 seconds. The homogenate were centrifuged under 20,000×G for 60 minutes at 4° C. The supernatant was separated and the resulting pellet was added to the same buffer (1.5 ml/g wet weight), and homogenized under the same conditions. Triton X100 (2% w/v) was added and the mixture was stirred for 3 hours at 4° C. The centrifugation at 100,000×G for 60 minutes at 4° C. yielded the rat muscle extract as supernatant. This was stored at 4° C. for up to 4 weeks, and used for binding assays at receptors.
(2) Experiments of α1β1γδ Subtype of Nicotinic Acetylcholine Receptors Binding
Receptors binding experiments were performed as follow. That is, the extract of rat muscle containing 600-900 μg of protein was added to test tubes containing test compounds and incubated for 15 minutes at 37° C. Then, to this mixture was added 1 nM of [^3H]-α-bungarotoxin (α-Bgt) and further incubated for 2 hours. The samples were isolated by vacuum filtration onto Whatman GF/B filters, which were prerinsed with 0.5% polyethylenimine just prior to sample filtration, using Brandel multi manifold cell harvester. The filters were rapidly rinsed with washing solution (10 mM of KH2PO4, 150 mM of NaCl, pH 7.2, room temperature) (5×1 ml). The filters were counted in 3 ml of clearsol I (Nacalai Tesque Inc.). The determination of nonspecific binding was incubated in the presence of 1 μM α-Bgt. The solutions containing α-Bgt (labeled/non-labeled) were prepared by using buffer solution containing 0.25% of BSA. In the receptor binding experiments, said buffer solution was added for adjusting the final concentration of BSA to be 0.05%.
The analyses of the experimental results were conducted by the same way as described in the Biological Experiment 1.

[3] abbreviates: rat brain membrane, [3H]-cytisine 2 nM, read-out: Affinities for receptors Ki α4β2.
Setting [4] is: read-out: control % of [3H]-α-Bgt binding.

Structures are written as SMILES. Like-named read-outs stand apart in the source and are kept apart here.

Sequence of α1β1γδ subtype of nicotinic acetylcholine receptors (P25109 24-501): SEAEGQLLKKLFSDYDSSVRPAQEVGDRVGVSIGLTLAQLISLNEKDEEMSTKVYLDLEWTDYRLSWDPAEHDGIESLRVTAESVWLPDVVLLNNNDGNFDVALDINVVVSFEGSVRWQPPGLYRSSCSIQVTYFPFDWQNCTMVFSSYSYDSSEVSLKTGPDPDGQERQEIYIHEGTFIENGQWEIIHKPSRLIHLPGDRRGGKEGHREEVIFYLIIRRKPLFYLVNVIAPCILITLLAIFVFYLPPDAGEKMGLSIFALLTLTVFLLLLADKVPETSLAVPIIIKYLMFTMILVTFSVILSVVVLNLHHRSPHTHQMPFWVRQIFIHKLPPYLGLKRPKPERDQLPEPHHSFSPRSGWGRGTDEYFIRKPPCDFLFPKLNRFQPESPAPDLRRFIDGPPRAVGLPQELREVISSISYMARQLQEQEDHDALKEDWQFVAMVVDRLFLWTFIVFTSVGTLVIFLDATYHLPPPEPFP
Sequence of α1β1γδ subtype of nicotinic acetylcholine receptors (P25110 22-517): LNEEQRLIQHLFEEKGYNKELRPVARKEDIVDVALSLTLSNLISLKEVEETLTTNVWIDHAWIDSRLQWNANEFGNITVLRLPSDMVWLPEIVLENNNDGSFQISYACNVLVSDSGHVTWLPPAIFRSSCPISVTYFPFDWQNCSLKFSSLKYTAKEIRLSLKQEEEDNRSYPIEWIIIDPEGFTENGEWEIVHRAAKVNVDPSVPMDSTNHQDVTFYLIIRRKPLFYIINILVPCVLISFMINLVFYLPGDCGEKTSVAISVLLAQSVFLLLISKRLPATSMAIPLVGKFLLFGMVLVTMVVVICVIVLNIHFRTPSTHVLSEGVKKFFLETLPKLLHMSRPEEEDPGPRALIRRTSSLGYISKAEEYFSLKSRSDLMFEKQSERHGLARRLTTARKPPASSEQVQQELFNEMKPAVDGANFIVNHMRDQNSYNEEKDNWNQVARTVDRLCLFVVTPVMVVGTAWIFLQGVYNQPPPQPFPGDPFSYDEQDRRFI
Sequence of α1β1γδ subtype of nicotinic acetylcholine receptors (P25108 21-457): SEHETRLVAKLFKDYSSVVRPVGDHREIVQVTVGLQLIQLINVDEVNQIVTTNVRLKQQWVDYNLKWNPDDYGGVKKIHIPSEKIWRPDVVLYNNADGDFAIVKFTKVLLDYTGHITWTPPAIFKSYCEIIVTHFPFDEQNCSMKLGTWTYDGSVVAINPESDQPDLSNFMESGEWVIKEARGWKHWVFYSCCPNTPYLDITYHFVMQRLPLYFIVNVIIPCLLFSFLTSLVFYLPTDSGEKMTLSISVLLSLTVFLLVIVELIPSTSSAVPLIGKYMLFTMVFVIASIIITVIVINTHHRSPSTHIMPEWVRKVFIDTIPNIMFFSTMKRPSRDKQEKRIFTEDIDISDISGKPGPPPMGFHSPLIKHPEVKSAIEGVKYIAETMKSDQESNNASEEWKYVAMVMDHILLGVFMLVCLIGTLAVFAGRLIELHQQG
Sequence of α1β1γδ subtype of nicotinic acetylcholine receptors (P18916 23-519): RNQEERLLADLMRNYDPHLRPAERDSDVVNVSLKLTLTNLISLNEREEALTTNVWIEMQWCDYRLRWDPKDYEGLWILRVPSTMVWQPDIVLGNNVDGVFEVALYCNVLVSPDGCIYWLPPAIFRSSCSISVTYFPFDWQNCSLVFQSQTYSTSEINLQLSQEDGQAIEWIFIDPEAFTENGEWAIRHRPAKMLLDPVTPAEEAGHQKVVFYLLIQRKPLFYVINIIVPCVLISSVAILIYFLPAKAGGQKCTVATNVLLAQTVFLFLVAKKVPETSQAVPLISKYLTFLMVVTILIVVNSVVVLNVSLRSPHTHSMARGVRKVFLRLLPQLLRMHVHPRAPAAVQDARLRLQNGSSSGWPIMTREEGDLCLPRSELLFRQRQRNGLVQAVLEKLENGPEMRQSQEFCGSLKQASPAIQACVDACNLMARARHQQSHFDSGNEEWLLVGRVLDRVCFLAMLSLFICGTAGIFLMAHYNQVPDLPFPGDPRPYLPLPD
T1 sequence (P09483 31-630): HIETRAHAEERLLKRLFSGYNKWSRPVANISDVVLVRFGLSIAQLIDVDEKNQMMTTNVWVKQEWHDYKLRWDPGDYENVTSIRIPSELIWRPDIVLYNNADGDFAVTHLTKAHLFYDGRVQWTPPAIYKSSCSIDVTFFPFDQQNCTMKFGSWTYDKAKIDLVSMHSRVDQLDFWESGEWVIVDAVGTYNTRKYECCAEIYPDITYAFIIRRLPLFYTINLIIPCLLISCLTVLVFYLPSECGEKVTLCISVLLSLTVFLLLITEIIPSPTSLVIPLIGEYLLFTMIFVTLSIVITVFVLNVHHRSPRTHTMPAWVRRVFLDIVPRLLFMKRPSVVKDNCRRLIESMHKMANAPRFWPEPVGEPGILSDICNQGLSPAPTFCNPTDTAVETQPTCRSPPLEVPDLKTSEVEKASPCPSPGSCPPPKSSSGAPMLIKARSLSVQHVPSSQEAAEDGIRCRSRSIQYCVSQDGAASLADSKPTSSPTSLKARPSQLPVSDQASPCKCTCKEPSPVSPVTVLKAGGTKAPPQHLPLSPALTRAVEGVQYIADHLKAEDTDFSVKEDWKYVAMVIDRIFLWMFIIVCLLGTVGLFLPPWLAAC
T1 sequence (P12390 25-500): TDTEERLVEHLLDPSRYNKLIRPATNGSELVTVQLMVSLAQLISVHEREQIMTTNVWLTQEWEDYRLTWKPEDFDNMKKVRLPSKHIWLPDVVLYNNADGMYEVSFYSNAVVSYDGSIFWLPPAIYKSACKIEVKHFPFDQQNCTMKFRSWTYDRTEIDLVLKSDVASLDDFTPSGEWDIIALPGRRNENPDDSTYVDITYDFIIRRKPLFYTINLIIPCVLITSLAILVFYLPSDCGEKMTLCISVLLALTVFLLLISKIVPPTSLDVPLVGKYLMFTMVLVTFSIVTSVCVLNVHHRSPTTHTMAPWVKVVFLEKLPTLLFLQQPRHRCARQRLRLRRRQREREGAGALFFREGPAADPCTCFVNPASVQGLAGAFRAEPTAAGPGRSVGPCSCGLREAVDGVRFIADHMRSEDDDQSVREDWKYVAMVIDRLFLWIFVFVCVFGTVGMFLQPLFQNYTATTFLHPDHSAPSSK

Regarding `Nc1nccn1CCc1cccnc1` [Compound 14, 2-amino-1-[2-(3-pyridyl)ethyl]imidazole], the inhibition constant Ki in experiment [1] (setting [3]) amounted to 0.0035 µM; in experiment [2], 223 µM.
For `Nc1nccn1CCc1ccnnc1` [Compound 34, 2-amino-1-[2-(4-pyridazinyl)ethyl]imidazole], in that order: 0.068 µM and 1270 µM.
For `Cc1ccc(CCn2ccnc2N)cn1` [Compound 11, 2-amino-1-[2-(6-methyl-3-pyridyl)ethyl]imidazole] the same measures were 0.021 µM and 1150 µM.
For `Nc1nccn1CCc1cccnn1` [Compound 30, 2-amino-1-[2-(3-pyridazinyl)ethyl]imidazole] the same measures were 0.04 µM and 80 µM.
As to `N=C1NCCCN1CCc1ccc(Cl)nc1` [Compound 12, 1-[2-(6-chloro-3-pyridyl)ethyl]-2-imino-1,2,3,4,5,6-hexahydro-pyrimidine], the Ki in experiment [1] stood at 0.0014 µM; in experiment [2] it was 12 µM.
As to `Cc1cncc(CCn2ccnc2N)c1` [Compound 27, 2-amino-1-[2-(5-methyl-3-pyridyl)ethyl]imidazole], the inhibition constant (Ki) was found to be 0.021 µM in experiment [1] (setting [3]) and 339 µM in experiment [2].
Take `Nc1nccn1CCc1cnc(Cl)c(Cl)c1` [Compound 13, 2-amino-1-[2-(5,6-dichloro-3-pyridyl)ethyl]-imidazole]: the Ki in experiment [1] turned out to be 0.0031 µM; in experiment [2], 40 µM.
On to `Nc1nccn1CCc1cnc(Cl)s1` [Compound 23, 2-amino-1-[2-(2-chloro-5-thiazolyl)ethyl]imidazole], for which the Ki came to 0.0085 µM in experiment [1] and 44 µM in experiment [2].
Turning to `Nc1nccn1CCc1cncc(Br)c1` [Compound 25, 2-amino-1-[2-(5-bromo-3-pyridyl)ethyl]imidazole], the inhibitory constant (Ki) in experiment [1] (setting [3]) was determined as 0.002 µM; in experiment [2] it was 36 µM.
As to `Nc1nccn1CCc1cncnc1` [Compound 29, 2-amino-1-[2-(5-pyrimidyl)ethyl]imidazole], the Ki amounted to 0.006 µM in experiment [1] and 447 µM in experiment [2].
Consider `Nc1nccn1CCc1cnccn1` [Compound 31, 2-amino-1-[2-(2-pyrazinyl)ethyl]imidazole], for which, in experiment [1] (1 μM of test compound, rat brain membrane, read-out: control % of [3H]-cytisine binding), the remaining activity at 1 µM stood at 75%. For the same compound, the remaining activity at 10 µM in experiment [1] (10 μM of test compound, rat brain membrane, read-out: control % of [3H]-cytisine binding) was determined as 22%. In experiment [2] (setting [4]), the remaining activity at 100 µM was determined as 110% and the remaining activity at 1000 µM amounted to 53%.

Broadly, the Ki is the dissociation constant of the complex between target and ligand, obtained from inhibition or displacement.
